Assay results from ChEMBL document CHEMBL1201862, “PubChem BioAssay data set” (2004).
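Compound exposure: 48 hours, 5 concentrations, 96-well plates. GI50 = concentration required for 50% inhibition of growth.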 Calls of active or inactive are those of the source. No stated cut-off is given here; in the data, active = GI50 up to about 1.1 µM and inactive = higher.

What was measured:
Test in all cases: inhibition of tumour cell growth, NCI panel, 48 h
HOP-92 = test system: HOP-92
T47D = test system: T47D
HCC 2998 = test system: HCC 2998
A549 = test system: A549
DLD-1 = test system: DLD-1
UACC-62 = test system: UACC-62
ACHN = test system: ACHN
OVCAR-3 = test system: OVCAR-3
HT-29 = test system: HT-29
MOLT-4 = test system: MOLT-4
SK-MEL-5 = test system: SK-MEL-5
CCRF-CEM = test system: CCRF-CEM
IGROV-1 = test system: IGROV-1
SF-268 = test system: SF-268
NCI-H226 = test system: NCI-H226
EKVX = test system: EKVX
SNB-19 = test system: SNB-19
SNB-75 = test system: SNB-75
OVCAR-5 = test system: OVCAR-5
Hs-578T = test system: Hs-578T

Row | SMILES | GI50 (HOP-92) | GI50 (T47D) | GI50 (HCC 2998) | GI50 (A549) | GI50 (DLD-1) | GI50 (UACC-62) | GI50 (ACHN) | GI50 (OVCAR-3) | GI50 (HT-29) | GI50 (MOLT-4) | GI50 (SK-MEL-5) | GI50 (CCRF-CEM) | GI50 (IGROV-1) | GI50 (SF-268) | GI50 (NCI-H226) | GI50 (EKVX) | GI50 (SNB-19) | GI50 (SNB-75) | GI50 (OVCAR-5) | GI50 (Hs-578T)
1 | COC1N(C2CC(O)C(CO)O2)C(=O)NC(=O)C1(F)Br (centres undefined) | 22 µM (inactive) | > 72.3 µM (inactive) | 0.887 µM (active) | 1.12 µM (active) | 16.5 µM (inactive) | 4.27 µM (inactive) | 1.88 µM (inactive) | 10.7 µM (inactive) | 20 µM (inactive) | 11 µM (inactive) | 7.66 µM (inactive) | 3.53 µM (inactive) | 14.1 µM (inactive) | 1.2 µM (inactive) | > 50 µM (inactive) | 67.1 µM (inactive) | 41.2 µM (inactive) | 36.1 µM (inactive) | 77.8 µM (inactive) | 24.5 µM (inactive)
2 | COc1cc(-c2cccs2)sc1-c1cccs1 | 24.5 µM (inactive) |  | 26.7 µM (inactive) | 33.3 µM (inactive) | 8.17 µM (inactive) | 40.9 µM (inactive) | 53.5 µM (inactive) | 63.8 µM (inactive) | 20.7 µM (inactive) | 32.6 µM (inactive) | 29.7 µM (inactive) | 29.3 µM (inactive) | 25.5 µM (inactive) | 53.6 µM (inactive) | 43.5 µM (inactive) | 6.55 µM (inactive) | > 100 µM (inactive) | 14 µM (inactive) | 22.3 µM (inactive) | 
3 | O=C(Nc1nnn[nH]1)c1nc(O)cc(-c2ccccc2)n1 | > 100 µM (inactive) |  | > 100 µM (inactive) | > 100 µM (inactive) | > 100 µM (inactive) | > 100 µM (inactive) | > 100 µM (inactive) | > 100 µM (inactive) | > 100 µM (inactive) | > 100 µM (inactive) | > 100 µM (inactive) | > 100 µM (inactive) | > 100 µM (inactive) | > 100 µM (inactive) | > 100 µM (inactive) | > 100 µM (inactive) | > 100 µM (inactive) | > 100 µM (inactive) | > 100 µM (inactive) | 
4 | Cc1cnc(NCCCN(C)C)c2c1[nH]c1ccc3cc(O)ccc3c12 | 0.187 µM (active) | 0.485 µM (active) | 0.326 µM (active) | 0.365 µM (active) | 0.49 µM (active) | 0.678 µM (active) | 0.552 µM (active) | 0.505 µM (active) | 0.362 µM (active) | 0.0181 µM (active) | 0.815 µM (active) | 1.01 µM (active) | 1.19 µM (inactive) | 0.288 µM (active) | 0.435 µM (active) | 1.49 µM (inactive) | 0.48 µM (active) | 0.555 µM (active) | 0.925 µM (active) | 0.325 µM (active)
5 | Cc1cc(-c2c(F)cc3c4nn([C@H]5CC[C@@H](N(C)C)CC5)c(=O)c-4cn(C4CC4)c3c2F)cc(C)n1 | 0.0453 µM (active) | 0.347 µM (active) | 0.29 µM (active) | 0.161 µM (active) | 0.0428 µM (active) | 0.159 µM (active) | 0.214 µM (active) | 0.805 µM (active) | 0.245 µM (active) | < 0.0316 µM (active) | 0.289 µM (active) | 0.0452 µM (active) | 1.66 µM (inactive) | 0.119 µM (active) | 0.101 µM (active) | 2.06 µM (inactive) | 0.309 µM (active) | 0.0512 µM (active) | 1.42 µM (inactive) | 0.173 µM (active)
6 | CC(=O)NNc1nc(C)c(C(=O)NNC(=O)C(=O)Nc2ccc(C)cc2[N+](=O)[O-])s1 | > 100 µM (inactive) |  | > 100 µM (inactive) | > 100 µM (inactive) | > 100 µM (inactive) | > 100 µM (inactive) | > 100 µM (inactive) | 47.8 µM (inactive) | > 100 µM (inactive) | 98.4 µM (inactive) | > 100 µM (inactive) | 46.1 µM (inactive) | > 100 µM (inactive) | > 100 µM (inactive) | > 100 µM (inactive) | > 100 µM (inactive) | > 100 µM (inactive) | > 100 µM (inactive) | > 100 µM (inactive) | 
7 | Nc1ncc(CN2CCCC2)c(-c2ccccc2O)n1 | > 750 µM (inactive) |  | > 750 µM (inactive) | > 750 µM (inactive) | > 750 µM (inactive) | > 750 µM (inactive) | > 750 µM (inactive) | > 750 µM (inactive) | > 750 µM (inactive) | > 750 µM (inactive) | > 750 µM (inactive) | 8.39 µM (inactive) | > 750 µM (inactive) | > 750 µM (inactive) | > 750 µM (inactive) | > 100 µM (inactive) | > 750 µM (inactive) | > 750 µM (inactive) | > 750 µM (inactive) | 
8 | CC(C)c1ccccc1NC(=O)/C(Cl)=C1/Sc2ccccc2NC1=O | 11.6 µM (inactive) |  | 23.6 µM (inactive) | 32.3 µM (inactive) | 35.5 µM (inactive) | 20.3 µM (inactive) | 37.4 µM (inactive) |  |  | 24.8 µM (inactive) | 20.6 µM (inactive) | 24.6 µM (inactive) | 27 µM (inactive) | 34 µM (inactive) | 26.9 µM (inactive) | 49.1 µM (inactive) | 38.5 µM (inactive) | 22.7 µM (inactive) | 43.3 µM (inactive) | 
9 | CCOC(=O)C1S/C(=N/c2ccc(Cl)cc2C)N=C1C (centres undefined) | 15.5 µM (inactive) |  | 20.7 µM (inactive) | 21.4 µM (inactive) | 15.1 µM (inactive) | 14.1 µM (inactive) | 19.8 µM (inactive) | 20.8 µM (inactive) | 16.1 µM (inactive) | 9.77 µM (inactive) | 16.2 µM (inactive) |  | 25.1 µM (inactive) | 15.7 µM (inactive) | 24 µM (inactive) | 32.2 µM (inactive) | 26.6 µM (inactive) | 23.6 µM (inactive) | 18.1 µM (inactive) | 
10 | Nc1nc(N)c2ncn(CCCC(c3ccccc3)P(=O)(O)O)c2n1 (centres undefined) | > 100 µM (inactive) |  | > 100 µM (inactive) | > 100 µM (inactive) | > 100 µM (inactive) | > 100 µM (inactive) | > 100 µM (inactive) | > 100 µM (inactive) | > 100 µM (inactive) |  | > 100 µM (inactive) | > 100 µM (inactive) | > 100 µM (inactive) | > 100 µM (inactive) |  |  | > 100 µM (inactive) | > 100 µM (inactive) | > 100 µM (inactive) | 
11 | C[C@@H]1[C@H](c2ccccc2)O[B-]2(c3ccc(Br)cc3)OC(=O)C[N+]12C (some centres undefined) | 44.3 µM (inactive) |  | > 100 µM (inactive) | > 100 µM (inactive) | > 100 µM (inactive) | > 100 µM (inactive) | 86.9 µM (inactive) |  | > 100 µM (inactive) | 86.5 µM (inactive) | > 100 µM (inactive) | > 100 µM (inactive) | > 100 µM (inactive) | 94.2 µM (inactive) |  | > 100 µM (inactive) | > 100 µM (inactive) | 5.3 µM (inactive) | > 100 µM (inactive) | 
12 | COc1ccc(C2Oc3c(cc(O)c(OC)c3C)[C@@H]2C)cc1OC (some centres undefined) | 43 µM (inactive) |  | > 100 µM (inactive) | > 100 µM (inactive) | > 100 µM (inactive) | 90.2 µM (inactive) | > 100 µM (inactive) | > 100 µM (inactive) | > 100 µM (inactive) | 76.2 µM (inactive) | 31.6 µM (inactive) | 78.5 µM (inactive) | > 100 µM (inactive) | > 100 µM (inactive) | > 100 µM (inactive) | > 100 µM (inactive) | > 100 µM (inactive) | 29.7 µM (inactive) | > 100 µM (inactive) | 
13 | C/C(=N\NC(=O)C[n+]1ccccc1)c1sc(-c2nc(C)c(/C(C)=N/NC(=O)C[n+]3ccccc3)s2)nc1C | > 100 µM (inactive) |  | > 100 µM (inactive) | > 100 µM (inactive) | > 100 µM (inactive) | 65 µM (inactive) | > 100 µM (inactive) | > 100 µM (inactive) | 36.3 µM (inactive) | 95.9 µM (inactive) | > 100 µM (inactive) | > 10 µM (inactive) | > 100 µM (inactive) | > 100 µM (inactive) | > 100 µM (inactive) | > 100 µM (inactive) | > 100 µM (inactive) | > 100 µM (inactive) | > 100 µM (inactive) | 
14 | C=CCc1cc(-c2cc(CC=C)c(O)c(CN(CC)CC)c2)cc(CN(CC)CC)c1O | 18 µM (inactive) | 43 µM (inactive) | 29 µM (inactive) | 71.6 µM (inactive) | 70.1 µM (inactive) | 22.2 µM (inactive) | 80 µM (inactive) | 64 µM (inactive) | 15.7 µM (inactive) | 39.9 µM (inactive) | 11.1 µM (inactive) | 28.6 µM (inactive) | > 67.6 µM (inactive) | 76 µM (inactive) | 48.9 µM (inactive) | > 80.9 µM (inactive) | > 97.3 µM (inactive) | > 100 µM (inactive) | 18.8 µM (inactive) | 28.5 µM (inactive)
15 | CC(=O)O[C@H]1C(=O)[C@@]2(C)[C@H]([C@H](OC(=O)c3ccccc3)[C@]3(O)C[C@H](OC(=O)[C@H](O)[C@@H](NC(=O)c4ccccc4)c4ccccc4)C(C)=C1C3(C)C)[C@]1(OC(C)=O)CO[C@@H]1C[C@@H]2O [PACLITAXEL] |  |  | 0.00341 µM (active) |  | 0.0448 µM (active) | 0.00419 µM (active) | 0.661 µM (active) |  | 0.00273 µM (active) |  | 0.00388 µM (active) | 0.00267 µM (active) | 0.00708 µM (active) | 0.00658 µM (active) |  |  | 0.0121 µM (active) |  | 0.0783 µM (active) | 0.00597 µM (active)
